Oligonucleotides are written 5' to 3', each unit as a sugar letter and its base; * is a phosphorothioate linkage, no mark a phosphodiester; rarer units and linkages stand in square brackets, end groups in braces. Plain capitals give the bases only. d = 2'-deoxy (DNA); r = 2'-OH (RNA)
target: MRFAP1; assay: reporter assay of Huesken 2005; conditions: siRNA
Note: test concentration or dose not given here.

Row | Substance | normalised inhibition (eCFP-eYFP dual reporter)
1 | sense rCrArGrGrArGrArUrGrGrCrGrArArGrArUrGrGdTdT / antisense rCrCrArUrCrUrUrCrGrCrCrArUrCrUrCrCrUrGdCdG | 81.9%
2 | sense rCrArUrArUrGrUrArGrUrCrArArGrCrUrArUrAdTdT / antisense rUrArUrArGrCrUrUrGrArCrUrArCrArUrArUrGdAdA | 101%
3 | sense rCrArUrGrCrArGrCrArArUrGrGrCrArGrArArGdTdT / antisense rCrUrUrCrUrGrCrCrArUrUrGrCrUrGrCrArUrGdGdA | 79.1%
4 | sense rCrCrArGrArGrArGrCrCrUrUrUrGrUrUrUrUrCdTdT / antisense rGrArArArArCrArArArGrGrCrUrCrUrCrUrGrGdTdT | 89.6%
5 | sense rCrCrCrArGrGrGrCrGrGrArGrArArGrGrCrCrGdTdT / antisense rCrGrGrCrCrUrUrCrUrCrCrGrCrCrCrUrGrGrGdGdC | 65.6%
6 | sense rCrCrCrCrUrCrUrGrUrCrUrUrCrArCrUrCrUrGdTdT / antisense rCrArGrArGrUrGrArArGrArCrArGrArGrGrGrGdAdA | 87.5%
7 | sense rCrCrCrUrGrUrGrArCrArCrUrGrArGrArCrUrUdTdT / antisense rArArGrUrCrUrCrArGrUrGrUrCrArCrArGrGrGdAdC | 65.9%
8 | sense rCrCrGrArGrGrArGrGrUrGrGrArGrGrUrGrCrUdTdT / antisense rArGrCrArCrCrUrCrCrArCrCrUrCrCrUrCrGrGdGdC | 58.9%
9 | sense rCrCrGrGrGrGrCrArArGrCrUrGrUrGrGrGrArGdTdT / antisense rCrUrCrCrCrArCrArGrCrUrUrGrCrCrCrCrGrGdTdT | 44.9%
10 | sense rCrCrUrGrCrArArUrGrGrArCrCrCrArArArArCdTdT / antisense rGrUrUrUrUrGrGrGrUrCrCrArUrUrGrCrArGrGdTdT | 86.2%
11 | sense rCrCrUrGrCrArGrGrGrCrGrCrGrGrGrCrGrGrCdTdT / antisense rGrCrCrGrCrCrCrGrCrGrCrCrCrUrGrCrArGrGdTdG | 60.9%
12 | sense rCrGrGrArArCrCrCrGrGrUrArUrGrGrGrArGrAdTdT / antisense rUrCrUrCrCrCrArUrArCrCrGrGrGrUrUrCrCrGdTdT | 49.8%
13 | sense rCrGrGrArCrGrCrGrCrGrCrCrCrGrUrGrCrGrCdTdT / antisense rGrCrGrCrArCrGrGrGrCrGrCrGrCrGrUrCrCrGdCdG | 19.7%
14 | sense rCrGrGrCrGrGrArArGrUrUrUrUrGrArArGrArCdTdT / antisense rGrUrCrUrUrCrArArArArCrUrUrCrCrGrCrCrGdCdT | 94.8%
15 | sense rCrGrGrGrGrCrArArGrCrUrGrUrGrGrGrArGrAdTdT / antisense rUrCrUrCrCrCrArCrArGrCrUrUrGrCrCrCrCrGdGdT | 69.6%
16 | sense rCrGrGrUrArUrGrGrGrArGrArUrGrArGrGrUrCdTdT / antisense rGrArCrCrUrCrArUrCrUrCrCrCrArUrArCrCrGdGdG | 84.8%
17 | sense rCrUrArGrGrArCrUrGrArUrGrArCrCrUrGrGrGdTdT / antisense rCrCrCrArGrGrUrCrArUrCrArGrUrCrCrUrArGdCdC | 63.1%
18 | sense rCrUrArUrCrUrArUrUrArUrArArCrCrUrGrCrCdTdT / antisense rGrGrCrArGrGrUrUrArUrArArUrArGrArUrArGdTdG | 90.4%
19 | sense rCrUrArUrUrArUrArArCrCrUrGrCrCrUrGrArUdTdT / antisense rArUrCrArGrGrCrArGrGrUrUrArUrArArUrArGdAdT | 88%

Row | Substance | normalised inhibition (eCFP-eYFP dual reporter)
20 | sense rCrUrCrArArCrCrArCrCrUrGrCrArGrGrGrCrGdTdT / antisense rCrGrCrCrCrUrGrCrArGrGrUrGrGrUrUrGrArGdAdG | 43.2%
21 | sense rCrUrCrUrGrArGrGrArGrArGrCrGrCrUrCrUrCdTdT / antisense rGrArGrArGrCrGrCrUrCrUrCrCrUrCrArGrArGdGdC | 48.8%
22 | sense rCrUrGrArCrArCrUrArCrGrUrUrUrCrUrGrCrUdTdT / antisense rArGrCrArGrArArArCrGrUrArGrUrGrUrCrArGdTdG | 99.3%
23 | sense rCrUrGrArGrArCrUrUrGrGrArGrUrUrGrGrArGdTdT / antisense rCrUrCrCrArArCrUrCrCrArArGrUrCrUrCrArGdTdG | 81.5%
24 | sense rCrUrGrCrCrCrGrUrCrArUrCrCrArCrGrArGrAdTdT / antisense rUrCrUrCrGrUrGrGrArUrGrArCrGrGrGrCrArGdCdA | 70.8%
25 | sense rCrUrGrCrUrGrCrCrCrGrUrCrArUrCrCrArCrGdTdT / antisense rCrGrUrGrGrArUrGrArCrGrGrGrCrArGrCrArGdAdA | 39.5%
26 | sense rCrUrGrUrGrGrGrArGrArUrGrGrArCrArArUrAdTdT / antisense rUrArUrUrGrUrCrCrArUrCrUrCrCrCrArCrArGdCdT | 82.9%
27 | sense rCrUrUrCrGrArGrCrArGrUrUrUrCrUrGrCrUrGdTdT / antisense rCrArGrCrArGrArArArCrUrGrCrUrCrGrArArGdTdC | 59.9%
28 | sense rCrUrUrGrCrArArUrArCrCrCrUrUrUrGrUrGrUdTdT / antisense rArCrArCrArArArGrGrGrUrArUrUrGrCrArArGdGdA | 74.1%
29 | sense rCrUrUrGrGrArGrUrUrGrGrArGrCrUrCrArCrCdTdT / antisense rGrGrUrGrArGrCrUrCrCrArArCrUrCrCrArArGdTdC | 55.2%
30 | sense rCrUrUrGrUrUrCrGrUrCrUrGrUrArCrArArGrUdTdT / antisense rArCrUrUrGrUrArCrArGrArCrGrArArCrArArGdAdC | 54.3%
31 | sense rGrArArArCrCrArGrArGrArGrCrCrUrUrUrGrUdTdT / antisense rArCrArArArGrGrCrUrCrUrCrUrGrGrUrUrUrCdAdG | 86%
32 | sense rGrArArArGrArUrCrCrUrUrGrCrArArUrArCrCdTdT / antisense rGrGrUrArUrUrGrCrArArGrGrArUrCrUrUrUrCdAdT | 82.6%
33 | sense rGrArArCrArGrCrGrGrCrGrGrArArGrUrUrUrUdTdT / antisense rArArArArCrUrUrCrCrGrCrCrGrCrUrGrUrUrCdCdA | 84.3%
34 | sense rGrArArUrArArCrGrUrUrCrArUrUrCrCrUrGrGdTdT / antisense rCrCrArGrGrArArUrGrArArCrGrUrUrArUrUrCdAdC | 66.8%
35 | sense rGrArCrGrCrArGrUrGrGrArGrCrUrGrGrCrGrGdTdT / antisense rCrCrGrCrCrArGrCrUrCrCrArCrUrGrCrGrUrCdCdA | 65.5%
36 | sense rGrArCrUrUrCrArUrCrUrGrGrGrArCrUrGrUrGdTdT / antisense rCrArCrArGrUrCrCrCrArGrArUrGrArArGrUrCdTdG | 82.4%
37 | sense rGrArGrArArGrGrArArArArCrCrUrGrCrArArUdTdT / antisense rArUrUrGrCrArGrGrUrUrUrUrCrCrUrUrCrUrCdAdG | 79.1%

— the OligoGym collection
